# Tests used:
# Format in all cases: cell-based, Schistosoma mansoni
# S. mansoni schistosomula = assay: Roboworm high-content screening assay on schistosomula (motility and phenotype scores); details: 72 h
# Procedure: All PZQ derivatives were synthesized in the racemic form and evaluated as such. The compounds were initially screened at 10 μM against S. mansoni schistosomula using the Roboworm high-content screening assay , and were declared hits or nonhits based on their effect on parasites’ motility and phenotype scores after 72 h of incubation. As none of the compounds were considered hits at this concentration, we performed a titration from 6.25 to 50 μM (Figure S27).
# DMSO was included as a negative control. Compounds were considered hits if both their motility and phenotype scores were lower than −0.35 and −0.15, respectively (region delimited by the dashed lines). In red, PZQ analogues selected for further analysis.
# For the collection of schistosomula, B. glabrata snails infected with S. mansoni were shed for 2 h under light at 26 °C. Cercariae were collected, mechanically transformed into schistosomula as previously described.
# DMSO (0.625%, v/v) was included as a negative control. Z′ values for the assay were calculated to be 0.542 for phenotype and 0.361 for motility. […]
# Auranofin (AUR) was included at 10 µM as positive control. DMSO was included as a negative control. Compounds were considered hits if both their motility and phenotype scores were lower than -0.35 and -0.15, respectively (region delimited by the […]
# [1] = tested on: juvenile schistosomes (21 days p.i.); assay: XTT juvenile viability assay; details: 48 h; for parasite metabolic activity compared to the DMSO control group (XTT): 100 μM
# Sm.TRPMPZQ Y1392A mutant = assay: Ca2+ reporter activation assay, Sm.TRPMPZQ point mutant Y1392A; details: 100 μM
# Procedure: This trend likely indicates a similar binding mode.
# The colored cells represent the range of EC50 values for each compound based on their ability to activate the channel.
# (§1) The Ca^2+ reporter assay was performed using a Fluorescence Imaging Plate Reader (FLIPR) system, as described in the Supporting Information.
# (§2) Adult worm ex-vivo high-content assay
# (§3) “Area” and “False Negative Rate” from the MeasureObjectSizeShape and MeasureObjectOverlap modules, respectively. These measurements were then modeled by a multilevel generalized linear statistical model. The effects of the experimental treatments on […]
# (§4) The half-maximal inhibitory
# (§5) Windows (GraphPad Software, Boston, MA, USA; www.graphpad.com). […]
# (§6) with DMSO as a negative control. […]
# (§7) reader. […] The fluorescence
# (§8) Untransfected HEK293 cells were used as a control.
# (§9) 10% fetal bovine serum (FBS). […]
# (§10) atmosphere containing 5% CO₂. Following incubation, the growth medium was removed and […]
# buffer containing 2.5 mM probenecid in HBSS (with Ca²⁺ and Mg²⁺), 20 mM HEPES, 0.3% BSA (Sigma, A7030), and 0.03% L-ascorbic acid (Sigma). Cells were incubated for 40 minutes at 37 °C and subsequently for 20 minutes at room temperature. […]
# (§11) instrument (Molecular Devices). Baseline fluorescence was recorded for 20 seconds, followed by the addition of 5 µL of each drug solution, after which fluorescence was measured continuously for 250 seconds. […]
# Sm.TRPMPZQ = assay: Ca2+ reporter assay in antagonist mode (block of PZQ activation of Sm.TRPMPZQ); details: preincubation 1 nM-100 μM for 10 min, data not shown
# Procedure: as §1, §2, §3, §4, §5, §6, §7, §8, §9, §10
# buffer containing 2.5 mM probenecid in HBSS (with Ca²⁺ and Mg²⁺), 20 mM HEPES, 0.3% BSA (Sigma, A7030), and 0.03% L-ascorbic acid (Sigma). Cells were incubated for 40 minutes at 37 °C and subsequently for 20 minutes at room temperature. A total of seven PZQ derivatives were tested, using racemic PZQ included as a positive control on each assay plate. Drug dilutions were prepared in assay buffer without dye and probenecid and dispensed into separate flat-bottom 384-well plates. Calcium flux measurements were performed at room temperature using a […]
# as §11
# schistosomula after 72h of incubation using the Roboworm high-content screening assay. Auranofin (AUR) was included at 10 µM as positive control. DMSO was included as a negative control. Compounds were considered hits if both their motility and phenotype scores were lower than -0.35 and -0.15, respectively (region delimited by the […]
# (1 picture or pasted object on this page, not shown here)
SMILES,hit classification (motility and phenotype scores) (S. mansoni schistosomula; 12.5 μM),hit classification (motility and phenotype scores) (S. mansoni schistosomula; 25 μM),parasite metabolic activity compared to the DMSO control group (XTT) [1],"viability at 100 µM ([1]; Schistosoma mansoni, mean ± SD, read-out: juvenile worm viability (XTT, % residual viability)) [%]",activity at Sm.TRPMPZQ carrying the Y1392A mutation (Sm.TRPMPZQ Y1392A mutant),block of PZQ activation of Sm.TRPMPZQ (antagonist mode) (Sm.TRPMPZQ),effect on parasites motility (S. mansoni schistosomula; 50 μM),"hit classification (motility and phenotype scores) (S. mansoni schistosomula; 50 μM, hit if motility < -0.35 and phenotype < -0.15)"
[N-]=[N+]=Nc1ccc2c(c1)C1CN(C(=O)C3CCCCC3)CC(=O)N1CC2 (stereo not drawn) [Compound 4],borderline,declared a hit,significantly decreased,44.6,retained residual activity,,,
O=C(C1CCCCC1)N1CC(=O)N2CCc3ccc(-n4cc(C5=CCCCC5)nn4)cc3C2C1 (stereo not drawn) [Compound 5b],,,,,,failed to impact subsequent responses to PZQ,,
CCCc1cn(-c2ccc3c(c2)C2CN(C(=O)C4CCCCC4)CC(=O)N2CC3)nn1 (stereo not drawn) [Compound 5e],,,significantly decreased,,,,significant effect,did not change their phenotype score enough to be considered a hit

# From article PMC12718081 (ACS Infectious Diseases, 2025)
